Assay results taken from patent US4229438A, “Nonapeptides” (Takeda Chemical Industries, Ltd., priority 1978, dated 1980).
Residues, ends and D or L forms follow the SMILES beside them.

Test system: spleen cells of C3H/He mouse (23-26% albumin layer interface fraction)
Assay: Determination of theta antigen induction activity (procedure analogous to Komuro et al)
Format: cell-based
Details: C3H/He mouse spleen cell fraction in RPMI-1640, incubated with peptide at 37° C. for 2 hours; lysis with anti(theta) serum and guinea-pig complement
Protocol: The theta antigen induction activity of the nonapeptide (I) is assayed by a procedure analogous to the procedure described in the article of Komuro et al [The Lancet, i, 740-743 (1973)]. The spleen is enucleated from a C3H/He mouse, 2-3 months old, and minced in a tissue culture fluid (RPMI-1640). The resulting spleen cell suspension is fractionated by discontinuous density gradient centrifugation using 10 to 35% bovine serum albumin. The cells migrating to the 23-26% albumin layer interface are collected and resuspended in RPMI-1640. To this cell suspension is added the peptide, the activity of which is to be determined, at a varying concentration and the mixture is incubated at 37° C. for 2 hours. If the peptide added be active, fresh theta antigen will appear on the cell surface. Therefore, the count of such cells is taken by lysing with an outbred mouse anti(theta) serum and guinea-pig complement. The theta-antigen induction activity is computed by means of the following equation. Theta-antigen induction activity(%)=(A-B/A)×100 where A is the count of theta antigen-negative cells in the absence of the test peptide and B is the count of theta antigen-negative cells when the test peptide has been added.

| SMILES | The concentration required for showing at least 10% theta antigen induction activity |
| --- | --- |
| C[C@@H](NC(=O)[C@@H]1CCC(=O)N1)C(=O)N[C@@H](CCCCN)C(=O)N[C@@H](CO)C(=O)N[C@@H](CCC(N)=O)C(=O)NCC(=O)NCC(=O)N[C@@H](CO)C(=O)N[C@@H](CC(N)=O)C(=O)O [Example 1, pGlu-(D)-Ala-Lys-Ser-Gln-Gly-Gly-Ser-Asn-OH] (HELM PEPTIDE1{[Glp].[dA].K.S.Q.G.G.S.N}$$$$V2.0) | 1 to 10 ng/mL |
| C[C@H](NC(=O)[C@@H]1CCC(=O)N1)C(=O)N[C@@H](CCCCN)C(=O)N[C@@H](CO)C(=O)N[C@@H](CCC(N)=O)C(=O)N[C@H](C)C(=O)NCC(=O)N[C@@H](CO)C(=O)N[C@@H](CC(N)=O)C(=O)O [Example 4, pGlu-Ala-Lys-Ser-Gln-(D)-Ala-Gly-Ser-Asn-OH] (HELM PEPTIDE1{[Glp].A.K.S.Q.[dA].G.S.N}$$$$V2.0) | 0.1 to 1 ng/mL |
| C[C@H](NC(=O)[C@@H]1CCC(=O)N1)C(=O)N[C@@H](CCCCN)C(=O)N[C@@H](CO)C(=O)N[C@@H](CCC(N)=O)C(=O)NCC(=O)N[C@H](C)C(=O)N[C@@H](CO)C(=O)N[C@@H](CC(N)=O)C(=O)O [Example 3, pGlu-Ala-Lys-Ser-Gln-Gly-(D)-Ala-Ser-Asn-OH] (HELM PEPTIDE1{[Glp].A.K.S.Q.G.[dA].S.N}$$$$V2.0) | 1 to 10 ng/mL |
